“And” between values parts separate entries of the source, which are not always exact repeats. Equal entries are not always repeated.
tested on: human breast adenocarcinoma (MCF-7); assay: MTT cytotoxicity, MCF-7; format: cell-based; conditions: Homo sapiens, MCF7, MCF-7 cells
From the text: (§1) Three human tumorous cell lines—human colon carcinoma (HCT-116), human liver carcinoma (HepG-2), and human breast adenocarcinoma (MCF-7)—were subjected to cytotoxic behavior, employing the MTT analysis. Moreover, a normotoxicity assessment was employed against normal Vero cell line (African Green Monkey Kidney cells) for selected active compounds to determine their therapeutic safety. […] The inhibitory performance of derivatives 1a–e, 2a–e, 7a–g, 8, and 11a–e, and its derived relation to the cell proliferation of these three cancers, are described in Table 1 and Figure 2. […] Characteristically, the inhibitory activity was enhanced via incorporating the azo moieties in compounds 2a–b.
(§2) The cytotoxic activity was appraised using the 3-(4,5-dimethylthiazol-2-yl)-2,5-diphenyl-tetrazolium bromide (MTT) colorimetric assay as reported previously.

Q: For `CCOC(=O)C1=C(N)Oc2cc(O)c(/N=N/c3ccc(S(N)(=O)=O)cc3)cc2C1c1ccccc1` (centres unmarked) [7a], which IC50 is on record?
A: 13.05 ± 0.12 µM

Q: How did the IC50 turn out when `CCOC(=O)C1=C(N)Oc2cc(O)c(/N=N/c3ccc(S(N)(=O)=O)cc3)cc2C1c1ccc(C)cc1` (centres unmarked) [7b] was run?
A: 29.5 ± 3.29 µM

Q: Which IC50 does the source give for `CCOC(=O)C1=C(N)Oc2cc(O)c(/N=N/c3ccc(S(N)(=O)=O)cc3)cc2C1c1ccc(OC)cc1` (centres unmarked) [7c] here?
A: 104 ± 2.65 µM

Q: Which IC50 does the source give for `CCOC(=O)C1=C(N)Oc2cc(O)c(/N=N/c3ccc(S(N)(=O)=O)cc3)cc2C1c1ccc([N+](=O)[O-])cc1` (centres unmarked) [7d] here?
A: 97.9 ± 3.08 µM

Q: Which IC50 does the source give for `CCOC(=O)C1=C(N)Oc2cc(O)c(/N=N/c3ccc(S(N)(=O)=O)cc3)cc2C1c1ccc(F)cc1` (centres unmarked) [7e] here?
A: 6.15 ± 1.23 µM

Q: How did the IC50 turn out when `CCOC(=O)C1=C(N)Oc2cc(O)c(/N=N/c3ccc(S(N)(=O)=O)cc3)cc2C1c1ccc(Cl)cc1` (centres unmarked) [7f] was run?
A: 3.93 ± 0.09 µM

Q: `CCOC(=O)C1=C(N)Oc2cc(O)c(/N=N/c3ccc(S(N)(=O)=O)cc3)cc2C1c1ccc(Cl)cc1Cl` (centres unmarked) [7g] was tested. Which IC50 did it give?
A: 1.72 ± 2.5 µM

target: T1, cytosolic hCA II (Bos taurus, UniProt P00921); assay: CA-II inhibition assay (esterase activity, 4-NPA); format: biochemical, bovine; conditions: reduction in esterase activity, 4-NPA substrate; read-out: IC50 against hCA II
T1 construct: purchased Sigma–Aldrich C2624
Description: The CA-II inhibition assay for the analyzed molecules was performed based on the measurement of the reduction in esterase activity on the substrate p-nitrophenyl acetate (4-NPA). Briefly, the total mixture volume was 200 µL in a well containing 140 µL (20 mM HEPES) Tris buffer (pH 7.4), 20 µL of the enzyme (from bovine, Sigma–Aldrich, C2624, St. Louis, MO, USA), and 20 µL (0.5 mg/mL in DMSO) of the investigated derivatives, which were mixed and incubated at 25 °C for 15 min. […] The results, attained after the reactions were completed in triplicate, were quantified by the equation given below. The percent inhibition for each sample was calculated as Inhibition (%) = [(C − T)/C] × 100, where C (i.e., control) = total enzyme activity without inhibitor and T (i.e., test sample) = activity in the presence of test compound.

T1 sequence (P00921 whole entry): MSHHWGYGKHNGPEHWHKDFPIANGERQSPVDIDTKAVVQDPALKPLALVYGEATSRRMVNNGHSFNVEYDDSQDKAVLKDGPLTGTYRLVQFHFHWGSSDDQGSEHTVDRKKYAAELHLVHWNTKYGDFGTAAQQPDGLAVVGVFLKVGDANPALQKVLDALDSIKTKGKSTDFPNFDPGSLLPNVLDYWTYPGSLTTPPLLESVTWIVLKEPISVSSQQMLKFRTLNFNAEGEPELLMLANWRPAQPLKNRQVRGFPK

Q: How did the IC50 turn out when `CCOC(=O)C1=C(N)Oc2cc(O)c(/N=N/c3ccc(S(N)(=O)=O)cc3)cc2C1c1ccccc1` (centres unmarked) [7a] was run?
A: 301 µM

Q: Which IC50 does the source give for `CCOC(=O)C1=C(N)Oc2cc(O)c(/N=N/c3ccc(S(N)(=O)=O)cc3)cc2C1c1ccc(C)cc1` (centres unmarked) [7b] here?
A: 711 µM

Q: `CCOC(=O)C1=C(N)Oc2cc(O)c(/N=N/c3ccc(S(N)(=O)=O)cc3)cc2C1c1ccc(Cl)cc1` (centres unmarked) [7f] was tested. Which IC50 did it give?
A: 164 µM

Q: How did the IC50 turn out when `CCOC(=O)C1=C(N)Oc2cc(O)c(/N=N/c3ccc(S(N)(=O)=O)cc3)cc2C1c1ccc(Cl)cc1Cl` (centres unmarked) [7g] was run?
A: 314 µM

tested on: human liver carcinoma (HepG-2); assay: MTT cytotoxicity, HepG-2; format: cell-based; conditions: HepG-2 cells
From the text: as §1, §2

Q: For `CCOC(=O)C1=C(N)Oc2cc(O)c(/N=N/c3ccc(S(N)(=O)=O)cc3)cc2C1c1ccc(C)cc1` (centres unmarked) [7b], which IC50 is on record?
A: 45.7 ± 2.88 µM

Q: For `CCOC(=O)C1=C(N)Oc2cc(O)c(/N=N/c3ccc(S(N)(=O)=O)cc3)cc2C1c1ccc(OC)cc1` (centres unmarked) [7c], which IC50 is on record?
A: 51.8 ± 1.02 µM

Q: How did the IC50 turn out when `CCOC(=O)C1=C(N)Oc2cc(O)c(/N=N/c3ccc(S(N)(=O)=O)cc3)cc2C1c1ccc([N+](=O)[O-])cc1` (centres unmarked) [7d] was run?
A: 34.9 ± 2.79 µM

Q: Which IC50 does the source give for `CCOC(=O)C1=C(N)Oc2cc(O)c(/N=N/c3ccc(S(N)(=O)=O)cc3)cc2C1c1ccc(Cl)cc1` (centres unmarked) [7f] here?
A: 1.74 ± 0.07 µM

Q: `CCOC(=O)C1=C(N)Oc2cc(O)c(/N=N/c3ccc(S(N)(=O)=O)cc3)cc2C1c1ccc(Cl)cc1Cl` (centres unmarked) [7g] was tested. Which IC50 did it give?
A: 1.63 ± 2.36 µM

same assay, conditions: Homo sapiens, HepG2, HepG-2 cells

Q: Which IC50 does the source give for `CCOC(=O)C1=C(N)Oc2cc(O)c(/N=N/c3ccc(S(N)(=O)=O)cc3)cc2C1c1ccccc1` (centres unmarked) [7a] here?
A: 3.92 ± 0.09 µM

Q: How did the IC50 turn out when `CCOC(=O)C1=C(N)Oc2cc(O)c(/N=N/c3ccc(S(N)(=O)=O)cc3)cc2C1c1ccc(C)cc1` (centres unmarked) [7b] was run?
A: 51.9 µM

Q: For `CCOC(=O)C1=C(N)Oc2cc(O)c(/N=N/c3ccc(S(N)(=O)=O)cc3)cc2C1c1ccc(OC)cc1` (centres unmarked) [7c], which IC50 is on record?
A: 34.9 µM

Q: Which IC50 does the source give for `CCOC(=O)C1=C(N)Oc2cc(O)c(/N=N/c3ccc(S(N)(=O)=O)cc3)cc2C1c1ccc([N+](=O)[O-])cc1` (centres unmarked) [7d] here?
A: 45.9 µM

Q: How did the IC50 turn out when `CCOC(=O)C1=C(N)Oc2cc(O)c(/N=N/c3ccc(S(N)(=O)=O)cc3)cc2C1c1ccc(F)cc1` (centres unmarked) [7e] was run?
A: 2.92 ± 3.52 µM

Q: How did the IC50 turn out when `CCOC(=O)C1=C(N)Oc2cc(O)c(/N=N/c3ccc(S(N)(=O)=O)cc3)cc2C1c1ccc(Cl)cc1` (centres unmarked) [7f] was run?
A: 1.63 µM

Q: For `CCOC(=O)C1=C(N)Oc2cc(O)c(/N=N/c3ccc(S(N)(=O)=O)cc3)cc2C1c1ccc(Cl)cc1Cl` (centres unmarked) [7g], which IC50 is on record?
A: 1.74 µM

tested on: human colon carcinoma (HCT-116); assay: MTT cytotoxicity, HCT-116; format: cell-based; conditions: HCT-116 cells
From the text: as §1, §2

Q: `CCOC(=O)C1=C(N)Oc2cc(O)c(/N=N/c3ccc(S(N)(=O)=O)cc3)cc2C1c1ccc(Cl)cc1` (centres unmarked) [7f] was tested. Which “IC50 (µM) HCT-116” value did it give?
A: good potency

Q: Which “IC50 (µM) HCT-116” value does the source give for `CCOC(=O)C1=C(N)Oc2cc(O)c(/N=N/c3ccc(S(N)(=O)=O)cc3)cc2C1c1ccc(Cl)cc1Cl` (centres unmarked) [7g] here?
A: good potency

same assay, conditions: Homo sapiens, HCT-116 cells

Q: Which IC50 does the source give for `CCOC(=O)C1=C(N)Oc2cc(O)c(/N=N/c3ccc(S(N)(=O)=O)cc3)cc2C1c1ccccc1` (centres unmarked) [7a] here?
A: 6.82 ± 0.19 µM

Q: With `CCOC(=O)C1=C(N)Oc2cc(O)c(/N=N/c3ccc(S(N)(=O)=O)cc3)cc2C1c1ccc(C)cc1` (centres unmarked) [7b] as the compound, how does the IC50 read?
A: 17.3 ± 4.29 µM

Q: For `CCOC(=O)C1=C(N)Oc2cc(O)c(/N=N/c3ccc(S(N)(=O)=O)cc3)cc2C1c1ccc(OC)cc1` (centres unmarked) [7c], which IC50 is on record?
A: 70.8 ± 1.85 µM

Q: With `CCOC(=O)C1=C(N)Oc2cc(O)c(/N=N/c3ccc(S(N)(=O)=O)cc3)cc2C1c1ccc([N+](=O)[O-])cc1` (centres unmarked) [7d] as the compound, how does the IC50 read?
A: 114 ± 5.34 µM

Q: `CCOC(=O)C1=C(N)Oc2cc(O)c(/N=N/c3ccc(S(N)(=O)=O)cc3)cc2C1c1ccc(F)cc1` (centres unmarked) [7e] was tested. Which IC50 did it give?
A: 8 ± 3.45 µM

Q: How did the IC50 turn out when `CCOC(=O)C1=C(N)Oc2cc(O)c(/N=N/c3ccc(S(N)(=O)=O)cc3)cc2C1c1ccc(Cl)cc1` (centres unmarked) [7f] was run?
A: 3.57 ± 0.11 µM

Q: How did the IC50 turn out when `CCOC(=O)C1=C(N)Oc2cc(O)c(/N=N/c3ccc(S(N)(=O)=O)cc3)cc2C1c1ccc(Cl)cc1Cl` (centres unmarked) [7g] was run?
A: 1.74 ± 4.06 µM

target: T2, EGFR (Homo sapiens, UniProt P00533); assay: EGFR kinase assay kit inhibition; format: biochemical; conditions: not given
T2 construct: purchased BPS Bioscience 40321
Description: After ADP is converted into ATP, ATP can be used as the substrate of the luciferase-catalyzed reaction to generate an optical signal, which is positively correlated with kinase activity. […] The plate was incubated at 30 °C for 40 min.

T2 sequence (P00533 25-1210): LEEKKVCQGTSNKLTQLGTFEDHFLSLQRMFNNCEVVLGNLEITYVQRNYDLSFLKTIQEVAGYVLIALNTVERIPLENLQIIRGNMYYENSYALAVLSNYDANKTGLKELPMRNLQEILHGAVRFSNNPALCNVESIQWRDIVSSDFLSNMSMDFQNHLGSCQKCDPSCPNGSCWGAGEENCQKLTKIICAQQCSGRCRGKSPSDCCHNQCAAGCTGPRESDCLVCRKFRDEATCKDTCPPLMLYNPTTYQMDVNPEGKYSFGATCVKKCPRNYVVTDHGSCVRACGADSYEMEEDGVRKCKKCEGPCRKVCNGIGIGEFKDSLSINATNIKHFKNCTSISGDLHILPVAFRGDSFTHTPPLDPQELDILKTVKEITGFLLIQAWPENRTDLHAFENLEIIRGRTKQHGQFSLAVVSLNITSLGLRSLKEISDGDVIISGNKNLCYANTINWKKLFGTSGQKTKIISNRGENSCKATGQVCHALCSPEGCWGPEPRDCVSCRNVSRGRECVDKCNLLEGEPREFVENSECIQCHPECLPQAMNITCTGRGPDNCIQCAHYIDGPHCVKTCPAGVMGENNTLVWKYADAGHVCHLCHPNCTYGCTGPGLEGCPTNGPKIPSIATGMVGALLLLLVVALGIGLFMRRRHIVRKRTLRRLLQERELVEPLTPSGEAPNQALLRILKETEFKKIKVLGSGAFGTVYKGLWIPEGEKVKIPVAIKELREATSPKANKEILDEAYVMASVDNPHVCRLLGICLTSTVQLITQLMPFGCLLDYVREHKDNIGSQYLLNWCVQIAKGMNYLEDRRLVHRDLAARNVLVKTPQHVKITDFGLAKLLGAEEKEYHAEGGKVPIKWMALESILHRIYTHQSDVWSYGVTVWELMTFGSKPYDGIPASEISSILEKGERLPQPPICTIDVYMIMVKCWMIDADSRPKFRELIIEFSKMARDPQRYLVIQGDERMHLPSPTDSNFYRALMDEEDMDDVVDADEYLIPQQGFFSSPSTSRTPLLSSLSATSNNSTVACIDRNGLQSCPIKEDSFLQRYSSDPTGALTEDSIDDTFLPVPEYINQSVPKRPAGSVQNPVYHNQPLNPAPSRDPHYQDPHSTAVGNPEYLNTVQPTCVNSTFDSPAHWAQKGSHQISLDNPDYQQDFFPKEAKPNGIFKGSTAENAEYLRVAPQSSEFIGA

Q: Which IC50 does the source give for `CCOC(=O)C1=C(N)Oc2cc(O)c(/N=N/c3ccc(S(N)(=O)=O)cc3)cc2C1c1ccccc1` (centres unmarked) [7a] here?
A: 23.4 µM

Q: `CCOC(=O)C1=C(N)Oc2cc(O)c(/N=N/c3ccc(S(N)(=O)=O)cc3)cc2C1c1ccc(Cl)cc1` (centres unmarked) [7f] was tested. Which IC50 did it give?
A: 12.7 µM

target: T3, MMP-2 (Homo sapiens, UniProt P08253); assay: MMP-2 Inhibitor Screening Assay Kit (colorimetric); conditions: IC50 on MMP-2, MMP-2 inhibitor screening kit
T3 sequence (P08253 110-660): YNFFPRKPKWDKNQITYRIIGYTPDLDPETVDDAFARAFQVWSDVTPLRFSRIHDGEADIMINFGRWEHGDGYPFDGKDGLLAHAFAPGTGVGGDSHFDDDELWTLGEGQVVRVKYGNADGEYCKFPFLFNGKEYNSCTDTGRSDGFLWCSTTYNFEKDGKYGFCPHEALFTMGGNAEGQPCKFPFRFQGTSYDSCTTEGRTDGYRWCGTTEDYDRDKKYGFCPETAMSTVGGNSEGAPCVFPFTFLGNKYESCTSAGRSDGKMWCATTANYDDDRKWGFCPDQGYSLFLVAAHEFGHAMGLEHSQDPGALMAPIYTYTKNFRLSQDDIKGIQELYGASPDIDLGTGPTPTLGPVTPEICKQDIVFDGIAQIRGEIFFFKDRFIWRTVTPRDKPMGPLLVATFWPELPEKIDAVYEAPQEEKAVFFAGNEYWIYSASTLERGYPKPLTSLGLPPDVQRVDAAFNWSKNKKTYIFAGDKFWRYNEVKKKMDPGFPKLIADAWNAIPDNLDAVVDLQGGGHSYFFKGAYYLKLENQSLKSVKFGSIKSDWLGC

Q: For `CCOC(=O)C1=C(N)Oc2cc(O)c(/N=N/c3ccc(S(N)(=O)=O)cc3)cc2C1c1ccccc1` (centres unmarked) [7a], which IC50 is on record?
A: ~113 µM and 113 µM

Q: How did the IC50 turn out when `CCOC(=O)C1=C(N)Oc2cc(O)c(/N=N/c3ccc(S(N)(=O)=O)cc3)cc2C1c1ccc(Cl)cc1` (centres unmarked) [7f] was run?
A: ~64.8 µM and 64.8 µM

same assay, conditions: first concentration of two-fold serial dilutions

Q: `CCOC(=O)C1=C(N)Oc2cc(O)c(/N=N/c3ccc(S(N)(=O)=O)cc3)cc2C1c1ccccc1` (centres unmarked) [7a] was tested. Which “anti-MMP-2 inhibition at the first concentration” value did it give?
A: ~73.89%

Q: For `CCOC(=O)C1=C(N)Oc2cc(O)c(/N=N/c3ccc(S(N)(=O)=O)cc3)cc2C1c1ccc(Cl)cc1` (centres unmarked) [7f], which “anti-MMP-2 inhibition at the first concentration” value is on record?
A: approximately 80.93%
